Experimental data: patent publication US20200392108A1, “ANTIBODY-DRUG CONJUGATES AND RELATED COMPOUNDS, COMPOSITIONS AND METHODS” (Magenta Therapeutics, Inc., priority 2011, published 2020)
Where two headings read alike, the source gives them in different places. Square brackets hold non-standard residues; d marks the D form. Peptide text beside a SMILES is read from it. Dolaproine = CO[C@@H]([C@@H]1CCCN1)[C@@H](C)C(=O)O; Dil = CC[C@H](C)[C@H](NC)[C@@H](CC(=O)O)OC; NMeV = CN[C@H](C(=O)O)C(C)C

Tested on: BT474 (HER2+) cell line
Assay: Standard cellular cytotoxicity assay, BT474
Format: cell-based, human
From the text: The cytotoxicity of tubulysins T1 and T2 was compared to the cytotoxicity of MMAF using the BT474 (HER2+) cell line in a standard cellular cytotoxicity assay.

| Structure (SMILES) | IC50 | IC50 (Homo sapiens, BT-474) |
| --- | --- | --- |
| CC[C@H](C)[C@@H]([C@@H](CC(=O)N1CCC[C@H]1[C@H](OC)[C@@H](C)C(=O)N[C@@H](Cc1ccccc1)C(=O)O)OC)N(C)C(=O)[C@@H](NC(=O)[C@@H](NC)C(C)C)C(C)C [MMAF, monomethylauristatin F] (H-[NMeV]V[Dil][Dolaproine]F-OH) | 93 nM | – |
| CC[C@H](C)[C@H](NC(=O)[C@H]1CCCCN1C)C(=O)N(C)[C@H](C[C@@H](OC(C)=O)c1nc(C(=O)O)cs1)C(C)C [T1] | – | 11 nM |
| CC[C@H](C)[C@H](NC(=O)[C@H]1CCCCN1C)C(=O)N(C)[C@H](C[C@@H](OC(C)=O)c1nc(C(=O)N[C@@H](Cc2ccccc2)C[C@H](C)C(=O)O)cs1)C(C)C [T2] | – | < 0.1 nM |
